We go through ten compounds from US12503471B2, “Triazatricycle compounds for the treatment of autoimmune disease” (Hoffmann-La Roche Inc., priority 2019, dated 2025).

pIC50: −log10 of the molar value.

The target in this assay is T1, human TLR7 (Homo sapiens, UniProt Q9NYK1).
T1 construct: host or cells: HEK293 (HEK-Blue hTLR7)
T1 sequence (Q9NYK1 27-1049): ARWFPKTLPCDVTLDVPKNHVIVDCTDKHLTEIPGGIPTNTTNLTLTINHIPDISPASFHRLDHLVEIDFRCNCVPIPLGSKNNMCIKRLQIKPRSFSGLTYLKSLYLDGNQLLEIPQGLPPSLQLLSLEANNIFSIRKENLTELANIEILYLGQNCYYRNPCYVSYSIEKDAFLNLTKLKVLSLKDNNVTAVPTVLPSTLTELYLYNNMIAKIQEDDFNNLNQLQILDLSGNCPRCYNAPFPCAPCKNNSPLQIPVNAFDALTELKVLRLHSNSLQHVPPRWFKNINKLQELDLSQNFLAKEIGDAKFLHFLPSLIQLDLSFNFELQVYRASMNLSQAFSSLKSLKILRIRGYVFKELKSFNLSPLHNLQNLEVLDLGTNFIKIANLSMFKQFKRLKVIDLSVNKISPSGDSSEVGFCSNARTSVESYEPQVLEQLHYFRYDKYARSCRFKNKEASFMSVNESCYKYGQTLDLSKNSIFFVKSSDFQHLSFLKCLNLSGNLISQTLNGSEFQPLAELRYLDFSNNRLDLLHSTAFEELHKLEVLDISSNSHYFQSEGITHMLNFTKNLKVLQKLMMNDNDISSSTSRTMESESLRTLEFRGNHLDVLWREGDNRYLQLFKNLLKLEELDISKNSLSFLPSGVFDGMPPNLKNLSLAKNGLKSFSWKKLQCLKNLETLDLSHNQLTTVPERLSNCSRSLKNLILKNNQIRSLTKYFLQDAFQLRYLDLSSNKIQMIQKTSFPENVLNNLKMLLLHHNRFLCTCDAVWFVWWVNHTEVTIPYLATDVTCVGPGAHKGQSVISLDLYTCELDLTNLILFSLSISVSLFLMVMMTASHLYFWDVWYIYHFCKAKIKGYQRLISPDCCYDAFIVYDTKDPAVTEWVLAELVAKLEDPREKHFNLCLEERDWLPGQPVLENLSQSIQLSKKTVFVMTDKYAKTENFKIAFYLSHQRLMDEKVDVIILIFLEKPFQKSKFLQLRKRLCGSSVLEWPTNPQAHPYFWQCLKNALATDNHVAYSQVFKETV
The experiment in a line: HEK293-Blue-hTLR-7 cells assay. The note with it: HEK293-Blue-hTLR7 cells, R848 stimulation, 20 hrs, SEAP reporter; read-out: HEK/hTLR7 IC50. The assay is classed as cell-based. The source says:
HEK293-Blue-hTLR-7 Cells Assay:
A stable HEK293-Blue-hTLR-7 cell line was purchased from InvivoGen (Cat. #: hkb-htlr7, San Diego, Calif., USA). These cells were originally designed for studying the stimulation of human TLR7 by monitoring the activation of NF-κB. A SEAP (secreted embryonic alkaline phosphatase) reporter gene was placed under the control of the IFN-β minimal promoter fused to five NF-κB and AP-1-binding sites. The SEAP was induced by activating NF-κB and AP-1 via stimulating HEK-Blue hTLR7 cells with TLR7 ligands. Therefore the reporter expression was declined by TLR7 antagonist under the stimulation of a ligand, such as R848 (Resiquimod), for incubation of 20 hrs. The cell culture supernatant SEAP reporter activity was determined using QUANTI-Blue™ kit (Cat. #: rep-qbl, Invivogen, San Diego, Ca, USA) at a wavelength of 640 nm, a detection medium that turns purple or blue in the presence of alkaline phosphatase.
HEK293-Blue-hTLR7 cells were incubated at a density of 250,000˜450,000 cells/mL in a volume of 170 μL in a 96-well plate in Dulbecco's Modified Eagle's medium (DMEM) containing 4.5 g/L glucose, 50 U/mL penicillin, […], […], 2 mM L-glutamine, 10% (v/v) heat-inactivated fetal bovine serum with addition of 20 μL test compound in a serial dilution in the presence of final DMSO at 1% and 10 μL of 20 uM R848 in above DMEM, perform incubation under 37° C. in a CO2 incubator for 20 hrs. Then 20 μL of the supernatant from each well was incubated with 180 μL Quanti-blue substrate solution at 37° C. for 2 hrs and the absorbance was read at 620-655 nm using a spectrophotometer. The signaling pathway that TLR7 activation leads to downstream NF-κB activation has been widely accepted, and therefore similar reporter assay was modified for evaluating TLR7 antagonist.
`C[C@@H]1CN(c2ccc(C#N)c3ncccc23)C[C@@H]2c3cnc(N4CCNCC4)cc3CN12` [Example 2, 5-[(2S,6R)-6-methyl-11-piperazin-1-yl-4,7,12-triazatricyclo[7.4.0.02,7]trideca-1(9),10,12-trien-4-yl] quinoline-8-carbonitrile]: the pIC50 is 8.51.
As for `N#Cc1ccc(N2CCN3Cc4nc(N5CCNCC5)ccc4[C@@H]3C2)c2cccnc12` [Example 3A, 5-[(2R)-11-piperazin-1-yl-4,7,10-triazatricyclo[7.4.0.02,7]trideca-1(9),10,12-trien-4-yl]quinoline-8-carbonitrile], the pIC50 is 7.83.
For `CC1(N)CCN(c2ccc3c(n2)CN2CCN(c4ccc(C#N)c5ncccc45)C[C@@H]32)CC1` [Example 4A, 5-[(2R)-11-(4-amino-4-methyl-1-piperidyl)-4,7,10-triazatricyclo[7.4.0.02,7]trideca-1(9),10,12-trien-4-yl]quinoline-8-carbonitrile] the value was 8.06; for `C[C@@H]1CN(c2ccc(C#N)c3ncccc23)C[C@@H]2c3ccc(N4CCNCC4)nc3CN12` [Example 5, 5-[(2S,6R)-6-methyl-11-piperazin-1-yl-4,7,10-triazatricyclo[7.4.0.02,7]trideca-1(9),10,12-trien-4-yl]quinoline-8-carbonitrile], 9.05; for `C[C@@H]1CN(c2ccc(C#N)c3ncccc23)C[C@@H]2c3ccc(N4CC5CNCC(C4)O5)nc3CN12` [Example 6, 5-[(2S,6R)-6-methyl-11-(9-oxa-3,7-diazabicyclo[3.3.1]nonan-3-yl)-4,7,10-triazatricyclo[7.4.0.02,7]trideca-1(9),10,12-trien-4-yl]quinoline-8-carbonitrile], 8.31.
For `[2H]c1ccc2c(N3C[C@@H](C)N4Cc5nc(N6CC[C@@](C)(N)C6)ccc5[C@H]4C3)ccc(C#N)c2n1` [Example 7, 5-[(2S,6R)-11-[(3R)-3-amino-3-methyl-pyrrolidin-1-yl]-6-methyl-4,7,10-triazatricyclo[7.4.0.02,7]trideca-1(9),10,12-trien-4-yl]-2-deuterio-quinoline-8-carbonitrile] the value was 8.55.
Regarding `[2H]c1ccc2c(N3C[C@@H](C)N4Cc5nc(N6CC[C@](C)(N)C6)ccc5[C@H]4C3)ccc(C#N)c2n1` [Example 8, 5-[(2S,6R)-11-[(3S)-3-amino-3-methyl-pyrrolidin-1-yl]-6-methyl-4,7,10-triazatricyclo[7.4.0.02,7]trideca-1(9),10,12-trien-4-yl]-2-deuterio-quinoline-8-carbonitrile], the pIC50 is 8.89.
For `[2H]c1ccc2c(N3C[C@@H](C)N4Cc5nc(N6CCC7(CNC7)C6)ccc5[C@H]4C3)ccc(C#N)c2n1` [Example 9, 2-Deuterio-5-[(2S,6R)-11-(2,6-diazaspiro[3.4]octan-6-yl)-6-methyl-4,7,10-triazatricyclo[7.4.0.02,7]trideca-1(9),10,12-trien-4-yl]quinoline-8-carbonitrile] the value was 8.19.
Consider `[2H]c1ccc2c(N3C[C@@H](C)N4Cc5nc(N6CC[C@H]7CNC[C@H]76)ccc5[C@H]4C3)ccc(C#N)c2n1` [Example 10, 5-[(2S,6R)-11-[(3aS,6aS)-3,3a,4,5,6,6a-hexahydro-2H-pyrrolo[2,3-c]pyrrol-1-yl]-6-methyl-4,7,10-triazatricyclo[7.4.0.02,7]trideca-1(9),10,12-trien-4-yl]-2-deuterio-quinoline-8-carbonitrile], for which the pIC50 was 8.72.
For `[2H]c1ccc2c(N3C[C@@H](C)N4Cc5nc(N6CC[C@@H](N)[C@H](OC)C6)ccc5[C@H]4C3)ccc(C#N)c2n1` [Example 11, 5-[(2S,6R)-11-[(3R,4R)-4-amino-3-methoxy-1-piperidyl]-6-methyl-4,7,10-triazatricyclo[7.4.0.02,7]trideca-1(9),10,12-trien-4-yl]-2-deuterio-quinoline-8-carbonitrile] the value was 8.43.
